Assay results taken from patent US11066371B2, “Pyridine compound, making, and use thereof” (UNITED ARAB EMIRATES UNIVERSITY, priority 2015, dated 2021).

In the case of `Cc1c(C#N)c([O-])nc(-c2ccccc2)c1/N=N/c1ccc([N+](=O)[O-])cc1.[K+]`, the melting point is reported as > 300 °C.
